Measured values from patent US8623898B2, “Glycine transporter inhibiting substances” (Taisho Pharmaceutical Co., Ltd., priority 2009, dated 2014).
Where two headings read alike, the source gives them in different places.

Key:
[1] = target: T1, human type 1 glycine transporter (GlyT1) (Homo sapiens, UniProt P48067); experiment: Glycine uptake inhibition experiment ([3H] glycine uptake in T98G cells); format: cell-based; conditions: [3H] glycine 250 nM, read-out: IC50 (glycine uptake inhibiting activity)
T1 construct: Used in the experiment were T98G cells (glioma cells) developing a human type 1 glycine transporter (GlyT1); endogenous in cells; host or cells: T98G human glioma cells
T1 sequence (P48067 1-706): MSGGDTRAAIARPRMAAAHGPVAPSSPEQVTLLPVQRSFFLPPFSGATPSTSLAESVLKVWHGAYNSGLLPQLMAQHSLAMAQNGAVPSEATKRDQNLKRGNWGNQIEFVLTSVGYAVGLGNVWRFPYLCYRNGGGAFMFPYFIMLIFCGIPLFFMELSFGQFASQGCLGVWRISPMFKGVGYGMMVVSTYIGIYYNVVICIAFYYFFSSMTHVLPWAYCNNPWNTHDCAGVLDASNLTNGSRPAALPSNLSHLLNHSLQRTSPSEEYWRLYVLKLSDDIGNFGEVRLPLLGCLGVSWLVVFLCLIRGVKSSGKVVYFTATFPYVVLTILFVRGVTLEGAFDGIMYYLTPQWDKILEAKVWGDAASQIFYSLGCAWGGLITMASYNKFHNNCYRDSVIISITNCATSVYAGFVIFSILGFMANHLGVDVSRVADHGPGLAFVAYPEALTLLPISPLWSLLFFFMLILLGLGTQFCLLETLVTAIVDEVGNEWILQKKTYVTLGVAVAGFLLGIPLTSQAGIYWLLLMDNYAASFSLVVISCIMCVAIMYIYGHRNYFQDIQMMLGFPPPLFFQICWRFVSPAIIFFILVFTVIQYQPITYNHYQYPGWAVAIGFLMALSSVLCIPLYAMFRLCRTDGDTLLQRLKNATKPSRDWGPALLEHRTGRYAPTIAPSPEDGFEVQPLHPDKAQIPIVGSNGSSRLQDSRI
Description: A glycine uptake inhibition experiment was conducted in accordance with the method described in Neuron, 8, 927-935, 1992. Used in the experiment were T98G cells (glioma cells) developing a human type 1 glycine transporter (GlyT1). The T98G cells were seeded in a 96-well plate at a density of 2.0×10^4 cells per well and cultured overnight in a CO2 incubator. The test substance was first dissolved in a 100% DMSO solution and then dissolved in a 10 mM HEPES buffer solution (pH 7.4) supplemented with 150 mM sodium chloride, 1 mM calcium chloride, 5 mM potassium chloride, 1 mM magnesium chloride, 10 mM glucose, and 0.2% bovine serum albumin. After removing the cell culture medium, the test substance was subjected to a 10-min pretreatment. Thereafter, the test substance and [^3H] glycine (final concentration: 250 nM) were added to the cells and reaction was performed at room temperature for 15 minutes. After the end of the reaction, the extracellular fluid was aspirated with a manifold to remove the excess marker glycine present outside of the cells; thereafter, the cells were lysed with an aqueous solution of 0.5 M sodium hydroxide. The glycine content in the cells was determined by measuring the radioactivity in the cell lysate with a liquid scintillation counter. With the amount of glycine uptake in the presence of 10 μM ALX5407 being referred to as the nonspecific uptake, the amount of specific uptake was calculated by subtracting the amount of nonspecific uptake from the total amount of uptake in the absence of 10 μM ALX5407. In addition, glycine uptake inhibiting activity (IC50) was calculated from an inhibition curve for the concentration of the test substance ranging from 10^−9 to 10^−5 M.

P-gp (Human MDR1) = target: T2, P-gp (Human MDR1) (Homo sapiens, UniProt P08183); experiment: Test for recognizability of P-gp substrate (LLC-GA5-COL 300 cells); format: in vitro ADME; conditions: 10 μM, criteria of Nature Reviews Drug Discovery (2010) 9, 215-236
T2 construct: expressed in transfected cells; host or cells: LLC-GA5-COL 300 (LLC-PK1 pig kidney epithelial cells expressing human MDR1)
Description: In order that drugs acting on the central nervous system will develop their efficacy, their passage from the blood to the brain is generally important. While various efflux transporters are present at the blood-brain barrier to control this passage of drugs, P-glylcoprotein (P-gp) is a typical example and inhibits the passage to the brain of any drugs that serve as the substrate for P-gp. Therefore, in the development of pharmaceuticals, nonrecognizability of a candidate drug as the substrate for P-gp is the key to its passage to the brain.
A test for recognizability of P-gp substrate was performed in accordance with a modified version of the methods described in J. Pharmacol. Exp. Ther. (1992) Vol. 263, No. 2, 840-845 and J. Biol. Chem. (1992) Vol. 267, No. 34, 24248-24252. […] A solution of an assay compound (a DMSO solution of the compound as diluted with HBSS and adjusted to a final concentration of 10 μM) was added to the donor side of the LLC-GA5-COL 300 cells and a prescribed amount of HBSS was collected from the acceptor side at given time intervals and the concentration of the assay compound in the collected sample was measured by LC-MS/MS. […]

[2] = Membrane permeability experiment (PAMPA Evolution); format: in vitro ADME; conditions: artificial lipid GIT-0, pH 4.0, 5.0, 6.2 and 7.4, marker metoprolol
Description: In the development of pharmaceuticals, membrane permeability is an important factor to consider from the viewpoint of relationship with the bodily absorption of a medicament to be administered orally. Compounds having high membrane permeability are expected to feature satisfactory absorption by the intestinal tract (see Pharmaceutical Research (2002) Vol. 19, No. 7, 921-925.)
A membrane permeability test was conducted using PAMPA Evolution™ (pION INC.) in accordance with a modified version of the recommended protocol of pION INC. To be more specific, solutions of an assay compound (i.e., a DMSO solution of the compound as diluted by being added to system solutions that had been adjusted to prescribed pHs (4.0, 5.0, 6.2, and 7.4)) were prepared and added to the lower compartment (donor) of a sandwich plate having a lipid bilayer membrane formed of an artificial lipid (GIT-0). An acceptor sink buffer was added to the upper compartment (acceptor) and after the lapse of a prescribed period, the cumulative permeation of the compound was measured by performing UV spectroscopy on the solutions in the donor and acceptor, and the membrane permeability coefficient Pe (×10^−6 cm/sec) was calculated to assay the membrane permeability of the compound.

T2 sequence (P08183 whole entry): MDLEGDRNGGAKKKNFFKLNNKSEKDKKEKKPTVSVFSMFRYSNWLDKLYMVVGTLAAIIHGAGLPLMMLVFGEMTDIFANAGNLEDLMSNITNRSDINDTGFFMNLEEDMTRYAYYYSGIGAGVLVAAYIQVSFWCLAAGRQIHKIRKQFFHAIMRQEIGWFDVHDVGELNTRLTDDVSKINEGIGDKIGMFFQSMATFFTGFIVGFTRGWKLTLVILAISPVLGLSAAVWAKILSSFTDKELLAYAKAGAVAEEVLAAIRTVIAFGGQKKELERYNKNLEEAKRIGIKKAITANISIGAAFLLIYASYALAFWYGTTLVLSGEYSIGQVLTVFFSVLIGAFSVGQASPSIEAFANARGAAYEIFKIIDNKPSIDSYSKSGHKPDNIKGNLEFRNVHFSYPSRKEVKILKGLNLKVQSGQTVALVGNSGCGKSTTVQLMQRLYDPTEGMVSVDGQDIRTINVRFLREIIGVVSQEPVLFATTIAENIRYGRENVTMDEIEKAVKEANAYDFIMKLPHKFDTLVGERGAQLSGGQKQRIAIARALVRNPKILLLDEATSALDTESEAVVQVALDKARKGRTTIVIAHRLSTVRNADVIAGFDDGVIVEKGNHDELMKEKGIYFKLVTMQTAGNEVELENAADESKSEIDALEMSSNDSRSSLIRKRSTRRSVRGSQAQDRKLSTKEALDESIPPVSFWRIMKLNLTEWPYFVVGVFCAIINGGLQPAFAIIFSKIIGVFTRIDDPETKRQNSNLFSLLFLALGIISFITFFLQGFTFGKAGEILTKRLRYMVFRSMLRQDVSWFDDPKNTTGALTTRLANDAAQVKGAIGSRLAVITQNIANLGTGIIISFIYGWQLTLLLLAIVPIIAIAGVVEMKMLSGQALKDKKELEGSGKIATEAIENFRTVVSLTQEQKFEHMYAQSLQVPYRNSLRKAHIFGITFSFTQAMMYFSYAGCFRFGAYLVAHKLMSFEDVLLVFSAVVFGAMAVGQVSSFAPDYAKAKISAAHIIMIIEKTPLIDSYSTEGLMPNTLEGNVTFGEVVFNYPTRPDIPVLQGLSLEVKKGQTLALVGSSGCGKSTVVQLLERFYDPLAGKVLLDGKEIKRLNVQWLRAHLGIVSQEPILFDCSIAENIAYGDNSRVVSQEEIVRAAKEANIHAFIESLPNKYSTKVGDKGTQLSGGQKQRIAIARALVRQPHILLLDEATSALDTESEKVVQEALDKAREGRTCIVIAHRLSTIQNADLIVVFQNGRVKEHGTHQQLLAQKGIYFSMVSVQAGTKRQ

Compound | IC50 ([1]; 15 min, room temperature) [nM] | IC50 [1] [nM] | recognizability as P-gp substrate (efflux ratio basal→apical / apical→basal) (P-gp (Human MDR1)) | membrane permeability coefficient Pe compared with metoprolol [2]
O=C(c1c[nH]cn1)N(Cc1cccc(Cl)c1)C1CCOCC1 [Compound 26] | – | ≥ 1000 | – | higher Pe values than the high permeability marker compound metoprolol
Cn1cnc(C(=O)N(Cc2ccc(F)c(Cl)c2)C2CCOCC2)c1 [Compound 24] | 5.9 | < 100 | – | higher Pe values than the high permeability marker compound metoprolol
Cn1cnc(C(=O)N(Cc2ccc(F)c(-c3cccc(Cl)c3)c2)C2CCOCC2)n1 [Compound 61] | 15.9 | < 100 | – | higher Pe values than the high permeability marker compound metoprolol

Second part, led by results:

IC50 ([1]; 15 min, room temperature) [nM] | IC50 [1] [nM] | Compound | recognizability as P-gp substrate (efflux ratio basal→apical / apical→basal) (P-gp (Human MDR1)) | membrane permeability coefficient Pe compared with metoprolol [2]
7.4 | < 100 | Cn1cnc(C(=O)N(Cc2ccc(F)c(OC(F)(F)F)c2)C2CCOCC2)n1 [Compound 49] | not recognizable as the substrate for P-gp | –
40.3 | < 100 | Cn1cnc(C(=O)N(Cc2ccc(F)c(C(F)(F)F)c2)C2CCOCC2)n1 [Compound 35] | – | higher Pe values than the high permeability marker compound metoprolol
32 | < 100 | Cn1cnc(C(=O)N(Cc2ccc(F)c(-c3ccc(F)cc3)c2)C2CCOCC2)n1 [Compound 79] | – | higher Pe values than the high permeability marker compound metoprolol
